How the values were obtained:
Pseudomonas aeruginosa [1] = assay: Antibacterial activity against Pseudomonas aeruginosa 264-101354 assessed as reduction in bacterial growth by measuring chloramphenicol MIC at 4 ug/ml incubated for 18 hrs in presence of chloramphenicol by broth microdilution assay (reference value: 4096 ug/ml); format: functional; conditions: dose 4 µg/ml
Pseudomonas aeruginosa [2] = assay: Antibacterial activity against Pseudomonas aeruginosa 259-96918 assessed as fractional inhibitory concentration incubated for 18 hrs in presence of doxycycline by broth microdilution assay; format: functional
Pseudomonas aeruginosa [3] = assay: Antibacterial activity against Pseudomonas aeruginosa 259-96918 assessed as potentiation of chloramphenicol-induced antibacterial activity by measuring chloramphenicol MIC at 7.6 uM incubated for 18 hrs in presence of chloramphenicol by broth microdilution assay (reference value: 1024 ug/ml); format: functional
Escherichia coli = assay: Potentiation of doxycycline-induced antibacterial activity against Escherichia coli ATCC 25922 assessed as fold change in doxycycline MIC at 7.6 uM incubated for 18 hrs in presence of doxycycline by broth microdilution assay relative to control; format: functional
Pseudomonas aeruginosa [4] = assay: Antibacterial activity against Pseudomonas aeruginosa 100036 assessed as potentiation of doxycycline-induced antibacterial activity by measuring doxycycline MIC at 7.6 uM incubated for 18 hrs in presence of doxycycline by broth microdilution assay (reference value: 64 ug/ml); format: functional
Pseudomonas aeruginosa [5] = assay: Antibacterial activity against Pseudomonas aeruginosa 262-101856 assessed as potentiation of doxycycline-induced antibacterial activity by measuring doxycycline MIC at 7.6 uM incubated for 18 hrs in presence of doxycycline by broth microdilution assay (reference value: 1024 ug/ml); format: functional
Pseudomonas aeruginosa [6] = assay: Potentiation of doxycycline-induced antibacterial activity against Pseudomonas aeruginosa 259-96918 assessed as fold change in doxycycline MIC at 7.6 uM incubated for 18 hrs in presence of doxycycline by broth microdilution assay relative to control; format: functional
Pseudomonas aeruginosa [7] = assay: Antibacterial activity against Pseudomonas aeruginosa 260-97103 assessed as potentiation of chloramphenicol-induced antibacterial activity by measuring chloramphenicol MIC at 9.8 uM incubated for 18 hrs in presence of chloramphenicol by broth microdilution assay (reference value: 128 ug/ml); format: functional
Pseudomonas aeruginosa [8] = assay: Antibacterial activity against Pseudomonas aeruginosa 260-97103 assessed as fractional inhibitory concentration incubated for 18 hrs in presence of minocycline by broth microdilution assay; format: functional
Pseudomonas aeruginosa [9] = assay: Antibacterial activity against Pseudomonas aeruginosa 101885 assessed as fractional inhibitory concentration index incubated for 18 hrs in presence of tigecycline by broth microdilution assay; format: functional
Pseudomonas aeruginosa [10] = assay: Antibacterial activity against Pseudomonas aeruginosa 260-97103 infected in Galleria mellonella larvae assessed as survival of larvae treated at 3 hrs post-infection in presence of chloramphenicol and measured every 6 hrs for 36 hrs; format: functional, organism-based; conditions: dose 75-100 mg/kg
Pseudomonas aeruginosa [11] = assay: Antibacterial activity against Pseudomonas aeruginosa 101243 assessed as fractional inhibitory concentration incubated for 18 hrs in presence of minocycline by broth microdilution assay; format: functional
Pseudomonas aeruginosa [12] = assay: Antibacterial activity against Pseudomonas aeruginosa 114228 assessed as fractional inhibitory concentration index incubated for 18 hrs in presence of minocycline by broth microdilution assay; format: functional
Pseudomonas aeruginosa [13] = assay: Antibacterial activity against Pseudomonas aeruginosa 100036 assessed as fractional inhibitory concentration index incubated for 18 hrs in presence of minocycline by broth microdilution assay; format: functional
Pseudomonas aeruginosa [14] = assay: Antibacterial activity against Pseudomonas aeruginosa 91433 assessed as fractional inhibitory concentration incubated for 18 hrs in presence of tigecycline by broth microdilution assay; format: functional
Pseudomonas aeruginosa [15] = assay: Antibacterial activity against Pseudomonas aeruginosa 91433 assessed as fractional inhibitory concentration incubated for 18 hrs in presence of minocycline by broth microdilution assay; format: functional
Pseudomonas aeruginosa [16] = assay: Antibacterial activity against Pseudomonas aeruginosa 260-97103 assessed as fractional inhibitory concentration incubated for 18 hrs in presence of rifampicin by broth microdilution assay; format: functional
Pseudomonas aeruginosa [17] = assay: Potentiation of chloramphenicol-induced antibacterial activity against Pseudomonas aeruginosa 101243 assessed as fold change in chloramphenicol MIC at 9.8 uM incubated for 18 hrs in presence of chloramphenicol by broth microdilution assay relative to control; format: functional
Pseudomonas aeruginosa [18] = assay: Antibacterial activity against Pseudomonas aeruginosa 262-101856 assessed as potentiation of doxycycline-induced antibacterial activity by measuring doxycycline MIC at 9.8 uM incubated for 18 hrs in presence of doxycycline by broth microdilution assay (reference value: 1024 ug/ml); format: functional
HEK293 = assay: Cytotoxicity against human HEK293 cells assessed as cell viability at 50 uM incubated for 48 hrs in presence of doxycycline by prestoblue assay; format: cell-based; conditions: hek293, 48 h
Pseudomonas aeruginosa [19] = assay: Antibacterial activity against Pseudomonas aeruginosa 264-101354 assessed as potentiation of doxycycline-induced antibacterial activity by measuring doxycycline MIC at 9.8 uM incubated for 18 hrs in presence of doxycycline by broth microdilution assay (reference value: 64 ug/ml); format: functional
Pseudomonas aeruginosa [20] = assay: Antibacterial activity against Pseudomonas aeruginosa 100036 assessed as fractional inhibitory concentration index incubated for 18 hrs in presence of tigecycline by broth microdilution assay; format: functional
Pseudomonas aeruginosa [21] = assay: Antibacterial activity against Pseudomonas aeruginosa 264-101354 assessed as fractional inhibitory concentration incubated for 18 hrs in presence of minocycline by broth microdilution assay; format: functional
Pseudomonas aeruginosa [22] = assay: Antibacterial activity against Pseudomonas aeruginosa 259-96918 assessed as fractional inhibitory concentration incubated for 18 hrs in presence of minocycline by broth microdilution assay; format: functional
Pseudomonas aeruginosa [23] = assay: Antibacterial activity against Pseudomonas aeruginosa 264-101354 assessed as potentiation of chloramphenicol-induced antibacterial activity by measuring chloramphenicol MIC at 9.8 uM incubated for 18 hrs in presence of chloramphenicol by broth microdilution assay (reference value: 4096 ug/ml); format: functional
Enterobacter cloacae = assay: Potentiation of chloramphenicol-induced antibacterial activity against Enterobacter cloacae ATCC 117029 assessed as fold change in chloramphenicol MIC at 9.8 uM incubated for 18 hrs in presence of chloramphenicol by broth microdilution assay relative to control; format: functional
Pseudomonas aeruginosa [24] = assay: Antibacterial activity against Pseudomonas aeruginosa 260-97103 infected in Galleria mellonella larvae assessed as survival of larvae at 75 mg/kg treated at 3 hrs post-infection in presence of doxycycline and measured after 24 hrs relative to control; format: functional
Pseudomonas aeruginosa [25] = assay: Potentiation of chloramphenicol-induced antibacterial activity against Pseudomonas aeruginosa 101885 assessed as fold change in chloramphenicol MIC at 9.8 uM incubated for 18 hrs in presence of chloramphenicol by broth microdilution assay relative to control; format: functional
Pseudomonas aeruginosa [26] = assay: Potentiation of doxycycline-induced antibacterial activity against Pseudomonas aeruginosa PAO200 harboring mexA-mexB-oprM deletion mutant assessed as fold change in doxycycline MIC at <=9.8 uM incubated for 18 hrs in presence of doxycycline by broth microdilution assay; format: functional; conditions: dose microM <=9.8
Pseudomonas aeruginosa [27] = assay: Antibacterial activity against Pseudomonas aeruginosa 260-97103 infected in Galleria mellonella larvae assessed as survival of larvae at 75 mg/kg treated at 3 hrs post-infection in presence of chloramphenicol and measured after 18 hrs relative to control; format: functional
Pseudomonas aeruginosa [28] = assay: Antibacterial activity against Pseudomonas aeruginosa 260-97103 infected in Galleria mellonella larvae assessed as survival of larvae at 100 mg/kg treated at 3 hrs post-infection in presence of doxycycline and measured after 18 hrs relative to control; format: functional

Q: Which MIC (Pseudomonas aeruginosa [1]) does the source give for `CO[C@H]1/C=C/O[C@@]2(C)Oc3c(C)c(O)c4c(O)c(c(/C=N/N5CCN(C)CC5)c(O)c4c3C2=O)NC(=O)/C(C)=C\C=C\[C@H](C)[C@H](O)[C@@H](C)[C@@H](O)[C@@H](C)[C@H](OC(C)=O)[C@@H]1C` [RIFAMPIN] here?
A: 4100 µg/mL

Q: How did the FIC (Pseudomonas aeruginosa [2]) turn out when `NC[C@H]1O[C@H](O[C@H]2[C@H](O)[C@@H](O[C@H]3O[C@H](CO)[C@@H](O)[C@H](N)[C@H]3O)[C@H](N)C[C@@H]2N)[C@H](N)C[C@@H]1O` [TOBRAMYCIN] was run?
A: 0.125

Q: How did the MIC (Pseudomonas aeruginosa [3]) turn out when `CO[C@H]1/C=C/O[C@@]2(C)Oc3c(C)c(O)c4c(O)c(c(/C=N/N5CCN(Cc6cn(CCCCCCCCCCCCO[C@@H]7[C@@H](O[C@H]8O[C@H](CO)[C@@H](O)[C@H](N)[C@H]8O)[C@H](N)C[C@H](N)[C@H]7O[C@H]7O[C@H](CN)[C@@H](O)C[C@H]7N)nn6)CC5)c(O)c4c3C2=O)NC(=O)/C(C)=C\C=C\[C@H](C)[C@H](O)[C@@H](C)[C@@H](O)[C@@H](C)[C@H](OC(C)=O)[C@@H]1C.O=C(O)C(F)(F)F.O=C(O)C(F)(F)F.O=C(O)C(F)(F)F.O=C(O)C(F)(F)F.O=C(O)C(F)(F)F` was run?
A: 512 µg/mL

Q: What about the “fold change (FC)” value (Escherichia coli) of the same compound?
A: 0

Q: And the MIC (Pseudomonas aeruginosa [4])?
A: 0.5 µg/mL

Q: What about the MIC (Pseudomonas aeruginosa [5]) of the same compound?
A: 8 µg/mL

Q: What about the “fold change (FC)” value (Pseudomonas aeruginosa [6]) of the same compound?
A: 4

Q: For `CO[C@H]1/C=C/O[C@@]2(C)Oc3c(C)c(O)c4c(O)c(c(/C=N/N5CCN(Cc6cn(CCCCCCO[C@@H]7[C@@H](O[C@H]8O[C@H](CO)[C@@H](O)[C@H](N)[C@H]8O)[C@H](N)C[C@H](N)[C@H]7O[C@H]7O[C@H](CN)[C@@H](O)C[C@H]7N)nn6)CC5)c(O)c4c3C2=O)NC(=O)/C(C)=C\C=C\[C@H](C)[C@H](O)[C@@H](C)[C@@H](O)[C@@H](C)[C@H](OC(C)=O)[C@@H]1C.Cl.Cl.Cl.Cl.Cl`, which MIC (Pseudomonas aeruginosa [7]) is on record?
A: 2 µg/mL

Q: And the FIC (Pseudomonas aeruginosa [8])?
A: <0.125

Q: What about the “fractional inhibitory concentration index (FICI)” value (Pseudomonas aeruginosa [9]) of the same compound?
A: 0.19

Q: What about the Activity (Pseudomonas aeruginosa [10]) of the same compound?
A: Dose-dependent effect

Q: And the FIC (Pseudomonas aeruginosa [11])?
A: <0.063

Q: What about the “fractional inhibitory concentration index (FICI)” value (Pseudomonas aeruginosa [12]) of the same compound?
A: <0.28

Q: And the “fractional inhibitory concentration index (FICI)” value (Pseudomonas aeruginosa [13])?
A: 0.13

Q: And the FIC (Pseudomonas aeruginosa [14])?
A: <0.125

Q: And the FIC (Pseudomonas aeruginosa [15])?
A: <0.125

Q: What about the FIC (Pseudomonas aeruginosa [16]) of the same compound?
A: <0.125

Q: What about the “fold change (FC)” value (Pseudomonas aeruginosa [17]) of the same compound?
A: 4

Q: What about the MIC (Pseudomonas aeruginosa [18]) of the same compound?
A: 8 µg/mL

Q: And the Activity (HEK293)?
A: Non-Toxic

Q: And the MIC (Pseudomonas aeruginosa [19])?
A: 0.125 µg/mL

Q: And the “fractional inhibitory concentration index (FICI)” value (Pseudomonas aeruginosa [20])?
A: 0.13

Q: What about the FIC (Pseudomonas aeruginosa [21]) of the same compound?
A: 0.063

Q: What about the FIC (Pseudomonas aeruginosa [22]) of the same compound?
A: <0.125

Q: And the MIC (Pseudomonas aeruginosa [23])?
A: 128 µg/mL

Q: And the “fold change (FC)” value (Enterobacter cloacae)?
A: 0

Q: And the survival at 75 mg/kg (Pseudomonas aeruginosa [24])?
A: 55%

Q: And the “fold change (FC)” value (Pseudomonas aeruginosa [25])?
A: 4

Q: What about the “fold change (FC)” value (Pseudomonas aeruginosa [26]) of the same compound?
A: 8

Q: And the survival at 75 mg/kg (Pseudomonas aeruginosa [27])?
A: 55%

Q: What about the survival at 100 mg/kg (Pseudomonas aeruginosa [28]) of the same compound?
A: 87%

Reference: ChEMBL document CHEMBL4715829, “Heterodimeric Rifampicin-Tobramycin conjugates break intrinsic resistance of Pseudomonas aeruginosa to doxycycline and chloramphenicol in vitro and in a Galleria mellonella in vivo model” (Eur J Med Chem, 2019)
